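Method: 48-hour compound exposure of cells in 96-well plates, five concentrations, linear interpolation of endpoints. GI50: concentration for 50% inhibition of growth.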 Calls of active or inactive are those of the source. Cut-off read from the data, not from the text of the source: active = GI50 up to about 1.1 µM and inactive = higher.
Experiments:
Assay in all cases: inhibition of tumour cell growth, NCI panel, 48 h
CCRF-CEM = tested on: CCRF-CEM
COLO 205 = tested on: COLO 205
NCI-H460 = tested on: NCI-H460
PC-3 = tested on: PC-3
SK-MEL-5 = tested on: SK-MEL-5
T47D = tested on: T47D
UACC-62 = tested on: UACC-62
Malme-3M = tested on: Malme-3M
Hs-578T = tested on: Hs-578T
HT-29 = tested on: HT-29
A549 = tested on: A549
SNB-19 = tested on: SNB-19
HCT-116 = tested on: HCT-116
SK-MEL-2 = tested on: SK-MEL-2
OVCAR-8 = tested on: OVCAR-8
SN12C = tested on: SN12C
OVCAR-5 = tested on: OVCAR-5
MDA-MB-231 = tested on: MDA-MB-231
NCI-H522 = tested on: NCI-H522
EKVX = tested on: EKVX

Measured: GI50

COc1ccc(/C=C2\N=C(c3ccccc3)OC2=O)cc1OC(C)=O
inactive: CCRF-CEM 27.7 µM | COLO 205 > 100 µM | NCI-H460 > 100 µM | PC-3 31.1 µM | SK-MEL-5 63 µM | T47D > 100 µM | UACC-62 > 100 µM | Malme-3M 13.5 µM | Hs-578T 26.3 µM | HT-29 47.3 µM | A549 > 100 µM | SNB-19 > 100 µM | HCT-116 58.9 µM | SK-MEL-2 27.5 µM | OVCAR-8 50.4 µM | SN12C > 100 µM | OVCAR-5 > 100 µM | MDA-MB-231 46.5 µM

CCOC(=O)c1nc2ccc(C(F)(F)F)cc2nc1Nc1ccc(F)cc1
inactive: NCI-H522 54.6 µM | CCRF-CEM > 10 µM | COLO 205 > 100 µM | NCI-H460 28.9 µM | PC-3 > 100 µM | SK-MEL-5 > 10 µM | T47D > 100 µM | UACC-62 > 100 µM | Malme-3M > 100 µM | Hs-578T 21.9 µM | HT-29 > 100 µM | A549 28.8 µM | SNB-19 43.9 µM | HCT-116 > 100 µM | SK-MEL-2 > 100 µM | OVCAR-8 47.6 µM | SN12C > 100 µM | OVCAR-5 > 100 µM | MDA-MB-231 > 10 µM

CCCCCCC(C)CC(CCCCCC)NCCOC(=O)c1ccc([N+](=O)[O-])cc1 (stereo not given)
inactive: NCI-H522 13.8 µM | CCRF-CEM 2.69 µM | COLO 205 2.17 µM | SK-MEL-5 14.3 µM | T47D 15.6 µM | UACC-62 14.5 µM | Malme-3M 13.7 µM | Hs-578T 18.7 µM | HT-29 5.43 µM | A549 15.6 µM | SNB-19 15.9 µM | HCT-116 11.7 µM | SK-MEL-2 15.8 µM | OVCAR-8 10.2 µM | SN12C 12.4 µM | EKVX 13.7 µM | OVCAR-5 31.2 µM | MDA-MB-231 10.4 µM

Cc1ccc(S(=O)(=O)NCCCSCCO)cc1
inactive: NCI-H522 > 100 µM | CCRF-CEM 33.3 µM | COLO 205 18.3 µM | NCI-H460 43.9 µM | PC-3 30 µM | SK-MEL-5 13.9 µM | T47D 21.7 µM | Hs-578T 30.5 µM | HT-29 33.6 µM | A549 10.5 µM | SNB-19 9.04 µM | HCT-116 27.2 µM | OVCAR-8 57.8 µM | SN12C 43 µM | MDA-MB-231 27.7 µM

Cc1nnc2n1N=C(c1cc(F)c(Cl)cc1Cl)/C(=C/c1ccc(-c3ccc([N+](=O)[O-])cc3)o1)S2
inactive: NCI-H522 32.7 µM | CCRF-CEM 37.2 µM | COLO 205 65.9 µM | NCI-H460 > 100 µM | PC-3 47.4 µM | SK-MEL-5 56.9 µM | T47D 28.6 µM | UACC-62 > 100 µM | Malme-3M > 100 µM | Hs-578T > 100 µM | HT-29 69.2 µM | A549 > 100 µM | SNB-19 > 100 µM | HCT-116 46.1 µM | SK-MEL-2 42.6 µM | OVCAR-8 35.7 µM | SN12C 35.3 µM | EKVX > 100 µM | OVCAR-5 > 100 µM

O=c1[nH]c(=O)n(C2CC(O)C(CO)O2)cc1Oc1ccccc1 (stereo not given)
inactive: NCI-H522 > 100 µM | CCRF-CEM > 100 µM | COLO 205 > 100 µM | NCI-H460 > 100 µM | PC-3 > 100 µM | SK-MEL-5 > 100 µM | T47D > 100 µM | UACC-62 > 100 µM | Malme-3M > 100 µM | Hs-578T > 100 µM | HT-29 > 100 µM | A549 > 100 µM | SNB-19 > 100 µM | HCT-116 > 100 µM | OVCAR-8 > 100 µM | SN12C > 100 µM | EKVX > 100 µM | OVCAR-5 > 100 µM | MDA-MB-231 > 100 µM

O=C(/C(=C(/Br)I)c1ccccc1)c1ccccc1
inactive: CCRF-CEM 5.56 µM | COLO 205 17.6 µM | NCI-H460 19.1 µM | PC-3 28.6 µM | SK-MEL-5 14.6 µM | T47D 22.6 µM | UACC-62 18.4 µM | Malme-3M 14.5 µM | Hs-578T 40.1 µM | HT-29 17.9 µM | A549 26.9 µM | SNB-19 38.2 µM | HCT-116 16 µM | OVCAR-8 23.5 µM | SN12C 17.8 µM | EKVX 29 µM | OVCAR-5 48.6 µM | MDA-MB-231 25.5 µM

COc1cc(OC)c2c(=O)c(O)c(-c3ccc(OC)c(OC)c3)oc2c1
inactive: NCI-H522 4.23 µM | CCRF-CEM 3.1 µM | COLO 205 4.84 µM | NCI-H460 3.94 µM | PC-3 3.92 µM | SK-MEL-5 5.96 µM | T47D 4.97 µM | UACC-62 3.43 µM | Malme-3M > 28.1 µM | Hs-578T 17.3 µM | HT-29 28.2 µM | A549 5.85 µM | SNB-19 10.3 µM | HCT-116 4.94 µM | OVCAR-8 3.83 µM | SN12C 6.28 µM | EKVX 7.14 µM | OVCAR-5 10.3 µM | MDA-MB-231 5.28 µM
